One assay has as its target T1, RORγ-LBD (Homo sapiens, UniProt P51449).
T1 construct: made in house; host or cells: SF9 cells (baculovirus)
T1 sequence (P51449 269-508 limits assumed): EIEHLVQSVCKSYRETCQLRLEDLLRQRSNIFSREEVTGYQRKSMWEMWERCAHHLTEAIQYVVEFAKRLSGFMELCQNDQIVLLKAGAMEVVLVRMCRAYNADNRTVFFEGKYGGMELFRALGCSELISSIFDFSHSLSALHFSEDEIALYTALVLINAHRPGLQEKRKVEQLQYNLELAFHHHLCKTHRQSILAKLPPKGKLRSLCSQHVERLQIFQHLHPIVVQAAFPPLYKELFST
Kind of assay: RORγ-Ligand Binding Domain (LBD) TR-FRET Assay.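 For TR-FRET Assay Max Response: 665/615 nm ratio relative to signal without ursolic acid or compound set at 100.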 It is filed as biochemical. An outline of the steps:
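SF9 lysate containing His-RORγ-LBD, ~3 nM final; coactivator peptide biotin-SRC1 LXXLL, 200 nM final; ursolic acid 2 μM final; DMSO 1% final; Tris pH 7.0 buffer with KCl, EDTA, DTT, BSA. TR-FRET format.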
In general terms: TR-FRET usually uses a lanthanide donor and a delayed reading to cut background.

Another assay addresses T2, Gal4-RORγ-LBD (Homo sapiens, UniProt P51449).
T2 construct: expressed in transfected cells; host or cells: HEK-293 cells (pcDNA3.1neo plasmid)
T2 sequence (P51449 269-508 limits assumed): T1 sequence (P51449 269-508 limits assumed)
The assay is described as follows: Gal4-RORγ Luciferase Reporter Assay in HEK-293T Cells. It is filed as cell-based. The note with it: HEK-293 cells. An outline of the steps:
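In transfected HEK-293 cells (Gal4-RORγ-LBD, Gal4-luciferase), test agents with 2 μM ursolic acid were incubated overnight at 37 °C before luminescent detection. Values are relative to the ursolic-acid-free, compound-free signal (100).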
A general note: A reporter such as luciferase makes a cellular process visible.

Setting [1] is: luciferase reporter, with 2 μM ursolic acid.

The term EC50 denotes the concentration giving half of the maximal effect. A low value points to higher potency in that assay. Turning to `CC(C)(C[C@H]1CN(S(=O)(=O)c2cccc(C(F)(F)F)c2)c2cc(-c3cc(F)ccc3C(F)(F)F)ccc2O1)C(=O)O` [Compound 32AV, (S)-3-(6-(5-fluoro-2-(trifluoro-methyl)phenyl)-4-((3-(trifluoro-methyl)phenyl)sulfonyl)-3,4-dihydro-2H-benzo[b][1,4]oxazin-2-yl)-2,2-dimethylpropanoic acid], at RORγ-LBD, the EC50 is less than 0.5 µM and the “TR-FRET Assay Max Response” value is “** (The symbol “**” indicates a value in the range of greater than 90 to 150)”. Besides, on Gal4-RORγ-LBD (2 μM ursolic acid), the EC50 is less than 0.5 µM and the “Gal4-RORγ Assay Max Response” value was “** (The symbol “**” indicates a value in the range of greater than 90 to 150)”.
For the compound `COc1cccc(-c2ccc3c(c2)N(S(=O)(=O)c2cccc(C(F)(F)F)c2)C[C@H](CCC(=O)N2CCC(C(=O)O)CC2)O3)c1` [Compound 23L, (S)-1-(3-(6-(3-methoxyphenyl)-4-((3-(trifluoromethyl)-phenyl)sulfonyl)-3,4-dihydro-2H-benzo[b][1,4]oxazin-2-yl)propanoyl)piperidine-4-carboxylic acid], at RORγ-LBD, the EC50 was less than 0.5 µM and the “TR-FRET Assay Max Response” value is recorded as “**** (The symbol “****” indicates a value greater than 200)”. On Gal4-RORγ-LBD (setting [1]), the concentration giving a half-maximal response (EC50) was less than 0.5 µM and the “Gal4-RORγ Assay Max Response” value is recorded as “** (The symbol “**” indicates a value in the range of greater than 90 to 150)”.
Consider `CC(C)(C[C@H]1CN(S(=O)(=O)c2cccc(C(F)(F)F)c2)c2cc(-c3cccc(C(F)F)c3)ccc2O1)C(=O)O` [Compound 32AL, (S)-3-(6-(3-(difluoromethyl)-phenyl)-4-((3-(trifluoromethyl)-phenyl)sulfonyl)-3,4-dihydro-2H-benzo[b][1,4]oxazin-2-yl)-2,2-dimethylpropanoic acid], for which, at RORγ-LBD, the EC50 is less than 0.5 µM and the “TR-FRET Assay Max Response” value is recorded as “** (The symbol “**” indicates a value in the range of greater than 90 to 150)”. Moreover, on Gal4-RORγ-LBD (2 μM ursolic acid), the EC50 was less than 0.5 µM and the “Gal4-RORγ Assay Max Response” value is on record as “** (The symbol “**” indicates a value in the range of greater than 90 to 150)”.
Regarding `Cc1nn(C)c(C)c1-c1ccc2c(c1)N(S(=O)(=O)c1cccc(C(F)(F)F)c1)C[C@H](CCC(=O)O)O2` [Compound 4U, (S)-3-(4-((3-(trifluoromethyl)-phenyl)sulfonyl)-6-(1,3,5-trimethyl-1H-pyrazol-4-yl)-3,4-dihydro-2H-benzo[b][1,4]-oxazin-2-yl)propanoic acid], at RORγ-LBD, the EC50 was 0.5 to 5 µM and the “TR-FRET Assay Max Response” value is reported as “* (The symbol “*” indicates a value in the range of 25 to 90)”. At Gal4-RORγ-LBD (setting [1]), the concentration for a half-maximal effect (EC50) is 0.5 to 5 µM and the “Gal4-RORγ Assay Max Response” value is on record as “* (The symbol “*” indicates a value in the range of 25 to 90)”.
Turning to `O=C(O)CC[C@H]1CN(S(=O)(=O)c2cccc(C(F)(F)F)c2)c2cc(-c3nc(C(F)(F)F)cs3)ccc2O1` [Compound 4G, (S)-3-(4-((3-(trifluoromethyl)phenyl)sulfonyl)-6-(4-(trifluoromethyl)thiazol-2-yl)-3,4-dihydro-2H-benzo[b][1,4]oxazin-2-yl)propanoic acid], on RORγ-LBD, the EC50 is less than 0.5 µM and the “TR-FRET Assay Max Response” value is recorded as “**** (The symbol “****” indicates a value greater than 200)”. Also, on Gal4-RORγ-LBD (setting [1]), the EC50 lay in the range of 0.5 to 5 µM and the “Gal4-RORγ Assay Max Response” value was “** (The symbol “**” indicates a value in the range of greater than 90 to 150)”.
On to `O=C(O)C1(C[C@H]2CN(S(=O)(=O)c3cccc(C(F)(F)F)c3)c3cc(-c4cccc(C(F)(F)F)c4)ccc3O2)CCOCC1` [Compound 78H, (S)-4-((6-(3-(trifluoromethyl)-phenyl)-4-((3-(trifluoromethyl)-phenyl)sulfonyl)-3,4-dihydro-2H-benzo[b][1,4]oxazin-2-yl)methyl)tetrahydro-2H-pyran-4-carboxylic acid], for which, at RORγ-LBD, the EC50 was less than 0.5 µM and the “TR-FRET Assay Max Response” value is on record as “** (The symbol “**” indicates a value in the range of greater than 90 to 150)”. For the same compound, on Gal4-RORγ-LBD (2 μM ursolic acid), the EC50 was less than 0.5 µM and the “Gal4-RORγ Assay Max Response” value is “* (The symbol “*” indicates a value in the range of 25 to 90)”.

These data come from US10611740B2, “Aryl dihydro-2H-benzo[b][1,4]oxazine sulfonamide and related compounds for use as agonists of RORγ and the treatment of disease” (Lycera Corporation, priority 2015, dated 2020).
